Reference: ChEMBL document CHEMBL1132015, “Selective inactivation of protein tyrosine phosphatase PTP1B by sulfone analogue of naphthoquinone” (Bioorg Med Chem Lett, 1999)
pKi: −log10 of the molar value.

Assay: Inhibitory constant was determined against Protein tyrosine phosphatase (PTP) using the Kitz and Wilson method

pKi: 5.46
SMILES: O=C1C(CCl)=CS(=O)(=O)c2ccccc21
